Laboratory results from PubChem BioAssay (NCI).
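Here, GI50 denotes the concentration required for 50% inhibition of growth. At the TGI there is no net growth.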

Experiments:
Assay in all cases: NCI anticancer screen, dose series, 384-well format
[1] = tested on: 786-0 renal
[2] = tested on: A498 renal
[3] = tested on: A549 NSCLC
[4] = tested on: ACHN renal
[5] = tested on: BT-549 breast
[6] = tested on: CAKI-1 renal
[7] = tested on: CCRF-CEM leukemia
[8] = tested on: COLO 205 colon
[9] = tested on: DU-145 prostate
[10] = tested on: EKVX NSCLC
[11] = tested on: HCC-2998 colon
[12] = tested on: HCT-15 colon
[13] = tested on: HL-60(TB) leukemia
[14] = tested on: HOP-62 NSCLC
[15] = tested on: HOP-92 NSCLC
[16] = tested on: HS 578T breast
[17] = tested on: HT29 colon
[18] = tested on: IGROV1 ovarian
[19] = tested on: KM12 colon
[20] = tested on: M14 melanoma
[21] = tested on: MALME-3M melanoma
[22] = tested on: MCF7 breast
[23] = tested on: MDA-MB-231 breast
[24] = tested on: MDA-MB-435 melanoma
[25] = tested on: MDA-MB-468 breast
[26] = tested on: MOLT-4 leukemia
[27] = tested on: NCI-H226 lung
[28] = tested on: NCI-H23 lung
[29] = tested on: NCI-H322M lung
[30] = tested on: NCI-H460 NSCLC
[31] = tested on: NCI-H522 lung
[32] = tested on: NCI/ADR-RES ovarian
[33] = tested on: OVCAR-3 ovarian
[34] = tested on: OVCAR-4 ovarian
[35] = tested on: OVCAR-5 ovarian
[36] = tested on: OVCAR-8 ovarian
[37] = tested on: PC-3 prostate
[38] = tested on: RPMI-8226 leukemia
[39] = tested on: RXF 393 renal
[40] = tested on: SF-268 CNS
[41] = tested on: SF-295 CNS
[42] = tested on: SF-539 CNS
[43] = tested on: SK-MEL-2 melanoma
[44] = tested on: SK-MEL-28 melanoma
[45] = tested on: SK-MEL-5 melanoma
[46] = tested on: SK-OV-3 ovarian
[47] = tested on: SN12C renal
[48] = tested on: SNB-19 CNS
[49] = tested on: SNB-75 CNS
[50] = tested on: SR leukemia
[51] = tested on: SW-620 colon
[52] = tested on: T-47D breast
[53] = tested on: TK-10 renal
[54] = tested on: U251 glioblastoma
[55] = tested on: UACC-257 melanoma
[56] = tested on: UACC-62 melanoma
[57] = tested on: HCT-116 colon
[58] = tested on: K-562 leukemia
[59] = tested on: LOX IMVI melanoma
[60] = tested on: UO-31 renal

Nc1nc(F)nc2c1ncn2C1OC(CO)C(O)C1O (stereo not drawn) was tested, and the GI50 [1] was 17.8 µM, the TGI [1] was 56 µM and the GI50 [2] was 19.4 µM. For the same compound, the TGI [2] was 73.7 µM, the GI50 [3] was 29.8 µM and the TGI [3] was over 100 µM. It also gave a GI50 [4] of 21.7 µM, a TGI [4] of 48.5 µM and a GI50 [5] of 12 µM. For the same compound, the TGI [5] was 46.1 µM, the GI50 [6] was 17.4 µM and the TGI [6] was 50.3 µM. For the same compound, the GI50 [7] was 0.316 µM, the TGI [7] was 1.23 µM and the GI50 [8] was 11 µM. The TGI [8] was 37.3 µM, the GI50 [9] was 15.5 µM and the TGI [9] was 57.5 µM. It also gave a GI50 [10] of over 100 µM, a TGI [10] of over 100 µM and a GI50 [11] of 2.11 µM. It also gave a TGI [11] of 8.44 µM, a GI50 [12] of 32.2 µM and a TGI [12] of over 100 µM. For the same compound, the GI50 [13] was 2.12 µM, the TGI [13] was 3.75 µM and the GI50 [14] was 5.5 µM. For the same compound, the TGI [14] was 21 µM, the GI50 [15] was 7.81 µM and the TGI [15] was 56.8 µM. The GI50 [16] was 30.6 µM, the TGI [16] was over 100 µM and the GI50 [17] was 81.4 µM. The TGI [17] was over 100 µM, the GI50 [18] was 44.8 µM and the TGI [18] was over 100 µM. For the same compound, the GI50 [19] was 26.4 µM, the TGI [19] was over 100 µM and the GI50 [20] was 2.6 µM. It also gave a TGI [20] of 8.62 µM, a GI50 [21] of 1.81 µM and a TGI [21] of 8.06 µM. It also gave a GI50 [22] of 26.6 µM, a TGI [22] of over 100 µM and a GI50 [23] of 6.96 µM. It also gave a TGI [23] of 47.9 µM, a GI50 [24] of 12.4 µM and a TGI [24] of over 100 µM. For the same compound, the GI50 [25] was 26.5 µM, the TGI [25] was 82.8 µM and the GI50 [26] was 1.15 µM. For the same compound, the TGI [26] was 2.37 µM, the GI50 [27] was 95.9 µM and the TGI [27] was over 100 µM. It also gave a GI50 [28] of 3.55 µM, a TGI [28] of 15.7 µM and a GI50 [29] of over 100 µM. The TGI [29] was over 100 µM, the GI50 [30] was 16.5 µM and the TGI [30] was 35.8 µM. For the same compound, the GI50 [31] was 4.68 µM, the TGI [31] was 36.9 µM and the GI50 [32] was 2.34 µM. It also gave a TGI [32] of 6.41 µM, a GI50 [33] of 7.9 µM and a TGI [33] of over 100 µM. For the same compound, the GI50 [34] was over 100 µM, the TGI [34] was over 100 µM and the GI50 [35] was 34.2 µM. For the same compound, the TGI [35] was over 100 µM, the GI50 [36] was 1.98 µM and the TGI [36] was 4.61 µM. The GI50 [37] was 10.8 µM, the TGI [37] was over 100 µM and the GI50 [38] was 45.1 µM. The TGI [38] was over 100 µM, the GI50 [39] was 44.2 µM and the TGI [39] was over 100 µM. It also gave a GI50 [40] of 19.8 µM, a TGI [40] of 54.7 µM and a GI50 [41] of 76.2 µM. It also gave a TGI [41] of over 100 µM, a GI50 [42] of 59 µM and a TGI [42] of over 100 µM. The GI50 [43] was 4.7 µM, the TGI [43] was 16.6 µM and the GI50 [44] was 3.11 µM. It also gave a TGI [44] of 15.2 µM, a GI50 [45] of 14.1 µM and a TGI [45] of 43.4 µM. It also gave a GI50 [46] of 10.1 µM, a TGI [46] of 44.1 µM and a GI50 [47] of 6.16 µM. The TGI [47] was 24.6 µM, the GI50 [48] was 7.28 µM and the TGI [48] was 42.8 µM. It also gave a GI50 [49] of 23.1 µM, a TGI [49] of over 100 µM and a GI50 [50] of over 100 µM. It also gave a TGI [50] of over 100 µM, a GI50 [51] of 49.8 µM and a TGI [51] of over 100 µM. The GI50 [52] was 34.9 µM, the TGI [52] was over 100 µM and the GI50 [53] was over 100 µM. For the same compound, the TGI [53] was over 100 µM, the GI50 [54] was 36.7 µM and the TGI [54] was over 100 µM. It also gave a GI50 [55] of 50.8 µM, a TGI [55] of over 100 µM and a GI50 [56] of 28.8 µM. It also gave a TGI [56] of 96.8 µM.
Compound CN(C)C(=O)[C@H](O)[C@H](Cc1ccccc1)NC(=O)c1cc2cc(Cl)ccc2[nH]1 has a GI50 [1] of 20.5 µM, a TGI [1] of 51.1 µM and a GI50 [2] of 26.7 µM. For the same compound, the TGI [2] was 61 µM, the GI50 [3] was 27.3 µM and the TGI [3] was 77 µM. The GI50 [4] was 28.4 µM, the TGI [4] was 74.3 µM and the GI50 [5] was 20.5 µM. The TGI [5] was 47.8 µM, the GI50 [6] was 25.1 µM and the TGI [6] was 77.8 µM. For the same compound, the GI50 [7] was 17.9 µM, the TGI [7] was 32.7 µM and the GI50 [8] was 41.3 µM. The TGI [8] was over 100 µM, the GI50 [9] was 30.7 µM and the TGI [9] was 91.7 µM. The GI50 [10] was 32.7 µM, the TGI [10] was 97.3 µM and the GI50 [11] was 15.4 µM. The TGI [11] was 31.8 µM, the GI50 [57] was 22 µM and the TGI [57] was 66.5 µM. For the same compound, the GI50 [12] was 27.5 µM, the TGI [12] was 74.7 µM and the GI50 [13] was 16.6 µM. The TGI [13] was 30.5 µM, the GI50 [14] was 22.6 µM and the TGI [14] was 51.7 µM. The GI50 [15] was 26.9 µM, the TGI [15] was 65.8 µM and the GI50 [16] was 25.6 µM. The TGI [16] was 59.3 µM, the GI50 [17] was 21.8 µM and the TGI [17] was 49.1 µM. For the same compound, the GI50 [18] was 25.8 µM, the TGI [18] was 64.8 µM and the GI50 [58] was 20.2 µM. For the same compound, the TGI [58] was 44.9 µM, the GI50 [19] was 20.8 µM and the TGI [19] was 50.9 µM. For the same compound, the GI50 [59] was 20.3 µM, the TGI [59] was 36.1 µM and the GI50 [20] was 23.4 µM. For the same compound, the TGI [20] was 55.6 µM, the GI50 [21] was 21.2 µM and the TGI [21] was 55.4 µM. For the same compound, the GI50 [22] was 17.8 µM, the TGI [22] was 43 µM and the GI50 [23] was 27 µM. It also gave a TGI [23] of over 100 µM, a GI50 [24] of 38.3 µM and a TGI [24] of over 100 µM. For the same compound, the GI50 [25] was 19.1 µM, the TGI [25] was 36.1 µM and the GI50 [26] was 14.4 µM. The TGI [26] was 27.7 µM, the GI50 [27] was 23.1 µM and the TGI [27] was 57.5 µM. For the same compound, the GI50 [28] was 28.1 µM, the TGI [28] was 77.5 µM and the GI50 [29] was 28.1 µM. For the same compound, the TGI [29] was 67.7 µM, the GI50 [30] was 19.2 µM and the TGI [30] was 36.2 µM. For the same compound, the GI50 [31] was 22.6 µM, the TGI [31] was 58.2 µM and the GI50 [32] was 27.3 µM. The TGI [32] was 70.6 µM, the GI50 [33] was 16.5 µM and the TGI [33] was 31.5 µM. It also gave a GI50 [34] of 32 µM, a TGI [34] of 89.9 µM and a GI50 [36] of 36.4 µM. It also gave a TGI [36] of over 100 µM, a GI50 [37] of 21.3 µM and a TGI [37] of 46.7 µM. It also gave a GI50 [38] of 13.3 µM, a TGI [38] of 26.3 µM and a GI50 [39] of 20.7 µM. For the same compound, the TGI [39] was 54.8 µM, the GI50 [40] was 22.2 µM and the TGI [40] was 50.2 µM. It also gave a GI50 [41] of 21.8 µM, a TGI [41] of 44.2 µM and a GI50 [42] of 28.3 µM. It also gave a TGI [42] of 72.3 µM, a GI50 [44] of 31.2 µM and a TGI [44] of 88.4 µM. The GI50 [45] was 15.6 µM, the TGI [45] was 29.4 µM and the GI50 [46] was 32.9 µM. The TGI [46] was over 100 µM, the GI50 [47] was 25.9 µM and the TGI [47] was 77 µM. It also gave a GI50 [48] of 34.8 µM, a TGI [48] of over 100 µM and a GI50 [49] of 31.2 µM. For the same compound, the TGI [49] was over 100 µM, the GI50 [50] was 19.5 µM and the TGI [50] was 33.7 µM. The GI50 [51] was 25.3 µM, the TGI [51] was 57.1 µM and the GI50 [52] was 26.9 µM. It also gave a TGI [52] of 99.6 µM, a GI50 [53] of 25.1 µM and a TGI [53] of 67.9 µM. It also gave a GI50 [54] of 32.7 µM, a TGI [54] of 96.8 µM and a GI50 [55] of 20.5 µM. For the same compound, the TGI [55] was 37 µM, the GI50 [56] was 18.4 µM and the TGI [56] was 41 µM. The GI50 [60] was 31.1 µM and the TGI [60] was 92 µM.
